In assay [1] the test system is cGAS activity in THP1 cells. The assay can be described thus: Cellular assay: ISRE-Gaussia luciferase reporter THP1 cells transfected with ISD (Interferon Stimulatory DNA). The format is cell-based. Conditions: Homo sapiens, THP-1; ISRE-Gaussia luciferase reporter THP1 cells transfected with 2 μg/mL ISD, 16 hours; read-out: THP1-ISD (Inhibition of cGAS activity in THP1 cells, IC50). On the procedure: (§1) A reporter THP1 cell line harboring a gene encoding Gaussia Luciferase under the control of 5 tandem repeats of interferon-stimulated response elements (ISRE) was used to test inhibition of cGAS activity by synthetic compounds in human cells. These cells were plated on 96-well plates at 0.3×10^6/well and incubated with various concentrations of compounds or DMSO for 5 min, followed by transfection of 2 μg/mL of ISD (Interferon Stimulatory DNA, a 45 bp DNA oligo) or mock transfected using lipofectamine 2000 (Life Technology) method, according to manufacturer's instructions. 16 hours later, 15 μL of the media from each well is transferred to a new plate, 50 μL of solution containing 50 mM Hepes-NaOH, 50 mM NaCl, 10 mM EDTA, 1 μM of coeleanterazine was added to each well and luminescence was measured immediately. Fold increase in luminescence compared to mock transfection is plotted against concentrations of each compound, and IC50 is calculated using Graphpad. To evaluate the specificity of a compound, the same procedure was performed except that cells were transfected with 2 μg/mL poly(I:C) or infected with Sendai Virus (SeV) at 50 Unit/mL, which are known to activate the RIG-I-MAVS pathway. A specific inhibitory compound should inhibit interferon induction by DNA but have minimal effect on poly(I:C) or Sendai virus induced interferon reporter gene expression.
For orientation: A reporter such as luciferase makes a cellular process visible.

Another assay has as its system RIG-I-MAVS pathway. Nature of the assay: Specificity assay: ISRE reporter THP1 cells infected with Sendai Virus (SeV). The format is cell-based. The following applies: Homo sapiens, THP-1; ISRE-Gaussia luciferase reporter THP1 cells infected with Sendai Virus (SeV) at 50 Unit/mL. On the procedure:
as §1

Assay [2] addresses T1, recombinant cGAS (aa147-522) (Homo sapiens, UniProt Q8N884).
T1 construct: recombinant cGAS (aa147-522); His6-SUMO (N, cleaved yes); made in house; host or cells: E. coli BL21/pLys
Nature of the assay: In vitro assay for inhibition of cGAS activity (ATP consumption, Kinase Glo). It counts as biochemical. The following applies: 37° C. 20 minutes, read-out: Activity (Inhibition of cGAS enzyme activity in vitro, IC50). The method in brief: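 Human cGAS (aa147-522) at 1.5 ng/μL incubated with serially diluted compound at 37° C for 20 min; remaining ATP read by Kinase Glo luminescence. IC50 from percent ATP consumption plotted against log compound concentration.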

Results on 36 compounds are retold here after patent US12065416B2, “cGAS antagonist compounds” (IMMUNESENSOR THERAPEUTICS, INC., priority 2016, dated 2024).

T1 sequence (Q8N884 147-522): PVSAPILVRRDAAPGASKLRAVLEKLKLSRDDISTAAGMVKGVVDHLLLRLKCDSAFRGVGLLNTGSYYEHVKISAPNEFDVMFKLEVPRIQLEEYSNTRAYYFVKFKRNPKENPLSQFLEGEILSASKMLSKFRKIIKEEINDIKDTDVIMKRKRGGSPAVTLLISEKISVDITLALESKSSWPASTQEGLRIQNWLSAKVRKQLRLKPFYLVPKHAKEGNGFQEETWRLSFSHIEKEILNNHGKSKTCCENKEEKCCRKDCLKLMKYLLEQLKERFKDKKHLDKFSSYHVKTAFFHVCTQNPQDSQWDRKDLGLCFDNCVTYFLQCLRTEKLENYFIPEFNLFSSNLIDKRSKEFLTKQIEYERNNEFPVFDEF

By IC50 is commonly meant the point on the concentration scale where inhibition reaches its midpoint. Regarding `CN1C(=O)S/C(=C\c2cc(OCc3cncnc3)c(O)cc2Br)C1=O` [Ex140], the IC50 in assay [1] is at most 2500 nM; in the assay with RIG-I-MAVS pathway, at least 10000 nM; in assay [2] it was at most 500 nM.
For `CN1C(=O)S/C(=C\c2cc(OCc3cncnc3N)c(O)cc2Br)C1=O` [Ex141] the same measures were at most 2500 nM, at least 10000 nM and at most 500 nM.
`CN1C(=O)S/C(=C\c2cc(OCc3cnc(N)nc3)c(O)cc2Br)C1=O` [Ex147]: the IC50 in assay [1] was at most 2500 nM; in the assay with RIG-I-MAVS pathway, at least 10000 nM; in assay [2], at most 500 nM.
`CNc1ncc(COc2cc(/C=C3\SC(=O)N(C)C3=O)c(Br)cc2O)cn1` [Ex148]: the figures for the IC50 (in assay [1]; with RIG-I-MAVS pathway; in assay [2]) were at most 2500 nM, at least 10000 nM and at most 500 nM, respectively.
Take `CN1C(=O)S/C(=C\c2cc(OCc3cnc(NC4CC4)nc3)c(O)cc2Br)C1=O` [Ex149]: the results for the IC50 (in assay [1]; with RIG-I-MAVS pathway; in assay [2]) were at most 2500 nM, at least 10000 nM and 500 to 10000 nM, respectively.
For `CN1C(=O)S/C(=C\c2cc(OCc3cnc(NCCO)nc3)c(O)c(F)c2Br)C1=O` [Ex152], in that order: at most 2500 nM, at least 10000 nM and at most 500 nM.
For `COCCNc1ncc(COc2cc(/C=C3\SC(=O)N(C)C3=O)c(Br)c(F)c2O)cn1` [Ex153] the same measures were 2500 to 10000 nM, at least 10000 nM and at most 500 nM.
As for `CN1C(=O)S/C(=C\c2cc(OCc3cnc(NCc4ccccn4)nc3)c(O)cc2Br)C1=O` [Ex155], the IC50 in assay [1] was 2500 to 10000 nM; in the assay on RIG-I-MAVS pathway, at least 10000 nM; in assay [2], at most 500 nM.
For `CN1C(=O)S/C(=C\c2cc(OCc3cnc(NCc4cccnc4)nc3)c(O)cc2Br)C1=O` [Ex156] the same measures were 2500 to 10000 nM, at least 10000 nM and at most 500 nM.
For `CN1C(=O)S/C(=C\c2cc(OCc3cnc(NCc4ccncc4)nc3)c(O)cc2Br)C1=O` [Ex157] the same measures were 2500 to 10000 nM, at least 10000 nM and at most 500 nM.
For `CN1C(=O)S/C(=C\c2cc(OCc3cnc(N4CCNCC4)nc3)c(O)cc2Br)C1=O` [Ex165], in that order: 2500 to 10000 nM, at least 10000 nM and at most 500 nM.
Turning to `Cc1nc(N)ncc1COc1cc(/C=C2\SC(=O)N(C)C2=O)c(Br)cc1O` [Ex170], the IC50 was at most 2500 nM in assay [1], at least 10000 nM in the assay on RIG-I-MAVS pathway and at most 500 nM in assay [2].
For `CN1C(=O)S/C(=C\c2cc(OCc3cnc(N)nc3C3CC3)c(O)cc2Br)C1=O` [Ex171], in that order: 2500 to 10000 nM, at least 10000 nM and at most 500 nM.
For `CN1C(=O)S/C(=C\c2cc(OCc3cnc4ccccc4c3)c(O)cc2Br)C1=O` [Ex177], in that order: 2500 to 10000 nM, at least 10000 nM and 500 to 10000 nM.
For `CN1C(=O)S/C(=C\c2cc(OCc3cnc(NN)nc3)c(O)cc2Br)C1=O` [Ex184], in that order: at most 2500 nM, at least 10000 nM and at most 500 nM.
With `O=C1/C(=C/c2cc(OCc3cncnc3)c(O)cc2Br)Sc2ncccc21` [Ex193], the IC50 in assay [1] was 2500 to 10000 nM; in the assay on RIG-I-MAVS pathway it was at least 10000 nM; in assay [2], at most 500 nM.
On to `Nc1ncc(COc2cc(/C=C3\Sc4ncccc4C3=O)c(Br)cc2O)cn1` [Ex194], for which the IC50 was at most 2500 nM in assay [1], at least 10000 nM in the assay on RIG-I-MAVS pathway and at most 500 nM in assay [2].
For `CNc1ncc(COc2cc(/C=C3\Sc4ncccc4C3=O)c(Br)cc2O)cn1` [Ex195], in that order: 2500 to 10000 nM, at least 10000 nM and at most 500 nM.
On to `O=C1/C(=C/c2cc(OCc3cnc(NCCO)nc3)c(O)cc2Br)Sc2ncccc21` [Ex196], for which the IC50 in assay [1] is at most 2500 nM; in the assay on RIG-I-MAVS pathway it was at least 10000 nM; in assay [2], at most 500 nM.
For `COCCNc1ncc(COc2cc(/C=C3\Sc4ncccc4C3=O)c(Br)cc2O)cn1` [Ex197], in that order: 2500 to 10000 nM, at least 10000 nM and at most 500 nM.
For `O=C1/C(=C/c2cc(OCc3cnc(NCc4ccncc4)nc3)c(O)cc2Br)Sc2ncccc21` [Ex200], in that order: at most 2500 nM, at least 10000 nM and at most 500 nM.
For `CN1C(=O)S/C(=C\c2cc(OCc3cnc(N)nc3)c(Oc3cnc(N)s3)cc2Br)C1=O` [Ex211], in that order: 2500 to 10000 nM, at least 10000 nM and 500 to 10000 nM.
As for `CN1C(=O)S/C(=C\c2cc(OCc3cnc([S+](C)[O-])nc3)c(O)cc2Br)C1=O` (stereo not drawn) [Ex213], the figures for the IC50 (in assay [1]; in the assay on RIG-I-MAVS pathway; in assay [2]) were 2500 to 10000 nM, at least 10000 nM and at most 500 nM, respectively.
For `C[S+]([O-])c1ncc(COc2cc(/C=C3\Sc4ncccc4C3=O)c(Br)cc2O)cn1` (stereo not drawn) [Ex216] the same measures were at most 2500 nM, 2500 to 10000 nM and at most 500 nM.
With `CN1C(=O)S/C(=C\c2cc(OCc3cn(-c4ccncc4)nn3)c(O)cc2Br)C1=O` [Ex233], the values for the IC50 (in assay [1]; in the assay with RIG-I-MAVS pathway; in assay [2]) were 2500 to 10000 nM, at least 10000 nM and at least 10000 nM, respectively.
Consider `CN1C(=O)S/C(=C\c2cc(Oc3ccc(N)nc3)c(O)cc2Br)C1=O` [Ex234], for which the IC50 in assay [1] was 2500 to 10000 nM; in the assay on RIG-I-MAVS pathway, at least 10000 nM; in assay [2], at least 10000 nM.
On to `CNc1ncc(COc2cc(/C=C3\Sc4ncccc4C3=O)c(Br)c(F)c2O)cn1` [ExA1], for which the values for the IC50 (in assay [1]; in the assay with RIG-I-MAVS pathway; in assay [2]) were 2500 to 10000 nM, at least 10000 nM and at most 500 nM, respectively.
As to `O=C1/C(=C/c2cc(OCc3cnc(NCc4ccccn4)nc3)c(O)c(F)c2Br)Sc2ncccc21` [ExA2], the IC50 in assay [1] was at least 10000 nM; in the assay with RIG-I-MAVS pathway it was at least 10000 nM; in assay [2], at most 500 nM.
`O=C1/C(=C/c2cc(OCc3cnc(NCc4cccnc4)nc3)c(O)c(F)c2Br)Sc2ncccc21` [ExA3]: the IC50 in assay [1] was 2500 to 10000 nM; in the assay with RIG-I-MAVS pathway, at least 10000 nM; in assay [2], at most 500 nM.
For `Cc1ncc(COc2cc(/C=C3\Sc4ncccc4C3=O)c(Br)c(F)c2O)cn1` [ExA4] the same measures were at most 2500 nM, at least 10000 nM and at most 500 nM.
For `CC(Oc1cc(/C=C2\SC(=O)N(C)C2=O)c(Br)c(F)c1O)c1cnc(Cl)nc1` (stereo not drawn) [ExA6] the same measures were 2500 to 10000 nM, 2500 to 10000 nM and at most 500 nM.
For `CC(Oc1cc(/C=C2\SC(=O)N(C)C2=O)c(Br)c(F)c1O)c1cnc(N)nc1C(F)(F)F` (stereo not drawn) [ExA7] the same measures were 2500 to 10000 nM, at least 10000 nM and at most 500 nM.
`C[S+]([O-])c1ncc(COc2cc(/C=C3\Sc4ncccc4C3=O)c(Br)c(F)c2O)cn1` (stereo not drawn) [ExA15]: the IC50 in assay [1] was 2500 to 10000 nM; in the assay with RIG-I-MAVS pathway, at least 10000 nM; in assay [2] it was 500 to 10000 nM.
For `CN1C(=O)S/C(=C\c2cc(O/C=C/c3cnc(N)nc3)c(O)c(F)c2Br)C1=O` [ExB2], in that order: at most 2500 nM, at least 10000 nM and at most 500 nM.
Take `CN1C(=O)S/C(=C\c2cc(OCCc3cnc(N)nc3)c(O)c(F)c2Br)C1=O` [ExB3]: the IC50 in assay [1] is at most 2500 nM; in the assay with RIG-I-MAVS pathway it was at least 10000 nM; in assay [2] it was at most 500 nM.
For `CC(Oc1cc(/C=C2\SC(=O)N(C)C2=O)c(Br)c(F)c1O)C(O)c1cnc(N)nc1` (stereo not drawn) [ExB4], in that order: at least 10000 nM, at least 10000 nM and at most 500 nM.
